This note sets out measurements from article PMC10949195, “Exponential Combination of a and e/g Intracellular Peptide Libraries Identifies a Selective ATF3 Inhibitor” (ACS Chemical Biology, 2024).

The data set is described as follows: CD spectra of peptide in isolation (helicity, 222/208 ratio). The format is physicochemical. The settings on record: 20 °C, 150 μM total peptide, pH 7.0. How it is done:
ATF3, ATF3W_a, and ATF3W_eg and combined hit sequence ATF3W_aeg were synthesized using solid phase peptide synthesis, purified by RP-HPLC, and verified for correct mass using ESI-MS (Figure S3), after which circular dichroism (CD) was used to characterize both ATF3 and antagonist peptides for helicity and interactions as homodimers, as well as heterodimers with the ATF3 target. Global secondary analysis of both homodimeric and heterodimeric systems was carried out at a total peptide concentration of 150 μM to keep equimolar concentrations of each component helix. The 222/208 ratio was used to provide evidence on whether the helices were likely to be monomeric or adopt quaternary structure.[13] […] Furthermore, incubation of ATF3 with ATF3W_aeg elicited a significant conformational change in the sample relative to the average of the component peptides (Figure 6d black line vs red hash), providing compelling evidence for an interaction.[14] In addition, the component PCA hits were examined using CD.
Figure 6 CD spectra data indicates a ATF3-ATF3W_aeg interaction. […] Spectra were next measured at 20 and 5 °C and again post-thermal denaturation (PM 20 °C to establish reversible that unfolding is fully reversible) at a total peptide concentration of 150 μM and presented as mean residue ellipticity (MRE). […]

For the substance “Ac-ELAALEQKAYALKQENAALEKEVAALEQKIAALK-NH2 (N-terminus and C-terminus assumed) [ATF3W_aeg]”, the “222/208 ratio, peptide in isolation” value is recorded as 0.76. Further, the “fractional helicity (fH), peptide in isolation” value (10 mM potassium phosphate, 100 mM potassium fluoride) is approximately 38%.
